Paper PMC8704606, “The Artemiside-Artemisox-Artemisone-M1 Tetrad: Efficacies against Blood Stage P. falciparum Parasites, DMPK Properties, and the Case for Artemiside” (Pharmaceutics, 2021)
Where two headings read alike, the source gives them in different places.

How the values were obtained:
[1] = system: asexual blood stages of Pf NF54 (drug sensitive); parameters: method as in PMID 29866868, PMID 31998692; settings: asexual blood stage Pf NF54, CQ sensitive; SYBR Green I; ± SEM; cited from earlier work
[2] = system: late-stage (LG) Pf NF54 gametocytes; parameters: method as in PMID 29866868; settings: late-stage gametocytes >90% stages IV-V; dose responses obtained at 72 h; ± SEM; cited from earlier work
P. falciparum W2 = system: P. falciparum W2; parameters: method as in ref S3; settings: [3H]-hypoxanthine assay; ref S3; cited from earlier work
[3] = system: P. falciparum asexual blood stage artemisinin-resistant clone ARC08-22 (4G) carrying the PfKI3 C580Y mutation; parameters: method as in ref S3; settings: ref S3, cited from earlier work; for IC50 / IC90: 48 h life cycle, PfKI3 C580Y
[4] = system: P. falciparum asexual blood stage artemisinin-resistant clone PL08-009 (5C) carrying the PfKI3 C580Y mutation; parameters: method as in ref S3; settings: ref S3, cited from earlier work; for IC50 / IC90: 36 h life cycle, PfKI3 C580Y
P. berghei sporozoites = settings: cited from earlier work; for Maximum inhibition % P. berghei sporozoites: ref S3; for IC50: luciferase-expressing P. berghei ANKA GFP-Luc-SMcon sporozoites in HepG2 cells, 48 h, ± SD, ref S3 (7)
[5] = system: CQ-sensitive P. berghei N strain; settings: cited from earlier work; for P. berghei ED90 po / P. berghei ED90 sc: Peters four-day test, mice, ref S4 (24); for P. berghei ED90 po: oral daily day 0-3; for P. berghei ED90 sc: subcutaneous daily day 0-3
P. berghei ANKA strain = settings: cited from earlier work; for outcome of combination with piperaquine: P. berghei ANKA infected mice, ip 0.66 mg/kg with piperaquine 10 mg/kg
[6] = system: type II tachyzoites (PRU-Luc-GFP); settings: sc 10 mg/kg/d for 8 days; cited from earlier work
[7] = cited from earlier work
HepG2 = settings: ref S3, cited from earlier work; for EC50: read-out: Cytotoxicity EC50 HepG2
[8] = system: late-stage (LG) Pf NF54 gametocytes; experiment: Luciferase assay, late-stage gametocytes; assay type: cell-based, Plasmodium falciparum; settings: for IC50: late-stage gametocytes >90% stages IV-V, dose response obtained at 72 h, ± SEM
Description: For screening artemisox and M1 against early- (EG) and late-stage (LG) gametocytes, the luciferase assay with transgenic NF54-pfs16-GFP-Luc and NF54-Mal8p1.16-GFP-Luc parasite lines was used. With this assay, stage-specificity of gametocytocidal action was established (Table 2). Dose-response curves are in Figures S1d,e and S2d in the Supplementary Material 1. […] As was observed previously for artemisone and artemiside, dose responses for artemisox and M1 could not be obtained at 48 h against late-stage gametocytes.
The same reference compounds with the exception of CQ were used for the early- and late-stage gametocyte assays. Gametocytocidal activity was determined using the transgenic NF54-pfs16-GFP-Luc and NF54-Mal8p1.16-GFP-Luc reporter lines. Compounds were initially screened for activity at a fixed drug concentration of 1 µM, with dose responses subsequently determined using 2-fold serial drug dilutions for 48 h against early-stage gametocytes (day 5 post-induction population, ≥95% stages II–III) and 10-fold serial drug dilutions for 48 h or 72 h against late-stage gametocytes (day 10 post-induction population, ≥90% late-stage [stages IV–V]) (2 to 3% gametocytemia, 2% hematocrit) at 37 °C under 90% N2, 5% CO2, and 5% O2 [6]. No drug washout steps were performed during the drug incubation periods prior to the assays. In all cases, an interference assay was run in parallel to eliminate the possibility of false positives arising through compound interference with the luciferase readout.

[9] = single dose 10 mg/kg, healthy Aotus monkeys; cited from earlier work
[10] = parameters: method as in PMID 18559649; settings: clinical Phase I trial, subject plasma samples; cited from earlier work
D6 (CQ sensitive) = system: D6 (CQ sensitive); parameters: method as in ref S2; settings: [3H]-hypoxanthine assay; ref S2; read-out: Antimalarial activities IC50 D6; cited from earlier work
[11] = system: TM93-C1088 (atovaquone and CQ resistant); parameters: method as in ref S2; settings: [3H]-hypoxanthine assay; ref S2; read-out: Antimalarial activities IC50 TM93-C1088; cited from earlier work
[12] = system: TM91-C235 (CQ and MFQ resistant); parameters: method as in ref S2; settings: [3H]-hypoxanthine assay; ref S2; read-out: Antimalarial activities IC50 TM91-C235; cited from earlier work
TM-C2B = system: TM-C2B; parameters: method as in ref S2; settings: [3H]-hypoxanthine assay; ref S2; read-out: Antimalarial activities IC50 TM-C2B; cited from earlier work
[13] = 10 mg/kg/d for 14 days by gavage in sesame oil
[14] = 50 mg/kg/d for 14 days by gavage in sesame oil

SMILES	IC50 [1]	IC50 [2]	IC50 (P. falciparum W2)	IC90 (P. falciparum W2)	IC50 [3]	IC90 [3]	RI = IC50 for ARC08-22(4G)/IC50 for W2 [3]	IC50 [4]	IC90 [4]	RI = IC50 for PL08-09 (5C)/IC50 for W2 [4]	IC50 (P. berghei sporozoites)	P. berghei ED90 po [5]	P. berghei ED90 sc [5]	P. berghei artesunate index sc (ED90 artesunate/ED90 compound) ([5]; ref S4)	outcome of combination with piperaquine (P. berghei ANKA strain)	mice surviving the infection, acute phase [6]	neurotoxicity in vivo, effects observed [7, 13]	neurotoxicity in vivo, effects observed [7, 14]	EC50 (HepG2)	SI = EC50 HepG2/IC50 P. berghei sporozoites (HepG2)	further results
C[C@H]1[C@H](N2CCSCC2)O[C@@H]2O[C@@]3(C)CC[C@H]4[C@H](C)CC[C@@H]1[C@@]24OO3 [Artemiside 5, Artemiside]	1.11 ± 0.17 nM	1.5 ± 0.5 nM	2.21 nM	4.28 nM	2.43 nM	4.85 nM	1.1	0.29 nM	0.43 nM	0.1	81.3 nM	1.9 mg/kg	0.51 mg/kg	14.1	survival of all mice, with no recrudescence taking place	60%	no effects were observed	neurotoxic sequelae including body weight loss, reduced motility, uncoordinated gait, and piloerection	> 25000 nM	> 308	Maximum inhibition % P. berghei sporozoites (P. berghei sporozoites; at 5 µM): 99.05±1.34%; outcome in cerebral malaria model (P. berghei ANKA strain; mice infected with P. berghei ANKA, artemiside 3 mg/kg/d ip for 4 days (days 2–5 post-infection)): complete cure
C[C@H]1[C@H](N2CCS(=O)(=O)CC2)O[C@@H]2O[C@@]3(C)CC[C@H]4[C@H](C)CC[C@@H]1[C@@]24OO3 [Artemisone 7, Artemisone]	1.2 ± 0.4 nM	42.4 ± 3.3 nM	1.69 nM	3.42 nM	1.62 nM	3.38 nM	1.0	0.27 nM	0.43 nM	0.2	28.3 nM	3.1 mg/kg	1.5 mg/kg	3.2	recrudescence with eventual mortality was observed	over 50%	no effects were observed	induced no effects	> 50000 nM	> 1767	fold decrease in activity against late-stage gametocytes ([8]; late-stage vs early-stage gametocytes, p < 0.05): > 20 fold; ex vivo antimalarial activity observable up to (post dose) [9]: up to 7 h; fold higher ex vivo antimalarial activity at Tmax than corresponds to plasma concentration by LC-MS/MS [10]: 2.3 fold; IC50 (D6 (CQ sensitive)): 1 ± 0.4 nM; IC50 [11]: 0.7 ± 0.2 nM; IC50 [12]: 1.1 ± 0.5 nM; IC50 (TM-C2B): 1.1 ± 0.4 nM; Maximum inhibition % P. berghei sporozoites (P. berghei sporozoites; at 10 µM): 93.35±1.76%; P. berghei artesunate index po (ED90 artesunate/ED90 compound) ([5]; ref S4): 2.3
C[C@H]1[C@H](N2CC[S+]([O-])CC2)O[C@@H]2O[C@@]3(C)CC[C@H]4[C@H](C)CC[C@@H]1[C@@]24OO3 [Artemisox 6, Artemisox]																					IC50 ([8]; Plasmodium falciparum, NF54, 72 h): 2.7 nM; IC50 [8]: 2.72 ± 0.09 nM
